Reference: paper PMC6420499 (Scientific Reports, 2019)
One block for each compound: values may come before it.

Experiments:
[1] = test system: CYP26 (atRA metabolite formation in fetal liver S9); experiment: Inhibition of atRA metabolite formation in human fetal liver S9 fractions by CYP selective inhibitors; format: in vitro ADME; details: human, human fetal liver S9 fractions, probe atRA (all-trans retinoic acid), 500 nM
Method: (§1) Talarozole was chosen as the CYP26 inhibitor based on previous characterization of its potency towards CYP26A1 and CYP26B1[34]. Ketoconazole was included in the analysis as it is a well characterized pan-CYP inhibitor with high potency both towards CYP3A7 and CYP26s[16],[34]. […] All of the samples were extracted and analyzed by HPLC-MS/MS. […] Incubations were performed as described above for fetal livers and analyzed for metabolite formation by HPLC-MS/MS. The percent inhibition was calculated by comparing the metabolite formation velocity in the presence of the inhibitor to vehicle control.
(§2) The aqueous phase contained 0.1 % formic acid throughout.

[2] = biological target: T1, recombinant CYP3A7 (Homo sapiens, UniProt P24462); experiment: Inhibition of recombinant CYP3A7 mediated 4-OH-RA formation; format: biochemical; details: CYP3A7 5 pmol/mL, 10 min
T1 construct: purchased BD Gentest
Method: as §1, §2

[3] = biological target: T2, recombinant CYP26A1 (Homo sapiens, UniProt O43174); experiment: Inhibition of recombinant CYP26A1 mediated 4-OH-RA formation; format: biochemical; details: talarozole 200 nM, atRA 500 nM, CYP26A1 2 pmol/mL, 2 min
T2 construct: made in house; host or cells: baculovirus infected insect cells (membrane fractions)
T2 sequence (O43174 1-497): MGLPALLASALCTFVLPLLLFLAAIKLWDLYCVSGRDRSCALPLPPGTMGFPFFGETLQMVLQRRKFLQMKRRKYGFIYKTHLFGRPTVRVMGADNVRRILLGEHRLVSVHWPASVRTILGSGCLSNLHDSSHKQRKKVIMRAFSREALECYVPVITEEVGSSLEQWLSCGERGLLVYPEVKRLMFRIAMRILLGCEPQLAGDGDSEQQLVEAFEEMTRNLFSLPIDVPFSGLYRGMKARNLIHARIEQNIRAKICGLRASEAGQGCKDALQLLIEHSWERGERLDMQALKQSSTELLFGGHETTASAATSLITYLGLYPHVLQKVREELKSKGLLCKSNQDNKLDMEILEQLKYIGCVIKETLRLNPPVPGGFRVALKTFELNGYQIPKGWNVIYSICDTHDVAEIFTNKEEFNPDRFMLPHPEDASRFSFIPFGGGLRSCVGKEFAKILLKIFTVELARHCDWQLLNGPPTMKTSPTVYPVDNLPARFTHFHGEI
Method: as §1, §2

[4] = test system: atRA metabolite formation in human fetal liver S9 fractions; experiment: Inhibition of atRA metabolite formation in human fetal liver S9 fractions by CYP selective inhibitors; format: in vitro ADME; details: ketoconazole 10 µM, atRA 500 nM, S9 fractions from four representative donors, vs vehicle control
Method: as §1, §2

[5] = test system: CYP26; set-up: method as in PMID 21521770; details: cited from earlier work
[6] = test system: CYP3A7; set-up: method as in PMID 21521770; details: cited from earlier work
[7] = test system: CYP3A7 (atRA metabolite formation in fetal liver S9); experiment: Inhibition of atRA metabolite formation in human fetal liver S9 fractions by CYP selective inhibitors; format: in vitro ADME; details: human, human fetal liver S9 fractions, probe atRA (all-trans retinoic acid), 500 nM
Method: as §1, §2

[8] = In vitro to in vivo scaling of atRA metabolism, fetal liver extraction ratio (well-stirred model); format: in vitro ADME, human; details: at any gestational age
[9] = atRA metabolite formation in human placental S9 preparations; format: in vitro ADME; details: preliminary studies, data not shown
[10] = Metabolite identification, atRA in representative human fetal liver S9 fractions; format: in vitro ADME; details: 5 µM atRA, 0.3 mg S9 protein in 1 mL, 10 min, two representative livers
Method: (§3) The incubations were quenched with ethyl acetate, metabolites extracted as previously described[15] and the product formation was then measured by LC-MS/MS as described below. For fetal liver S9 incubations two representative livers were chosen based on the mRNA expression levels of CYP3A7 and CYP26A1. […] After a pre-incubation of 5 min the reactions were initiated with the addition of NADPH (1 mM final concentration) and allowed to proceed for 10 min.
(§4) In brief, analytes were separated using a gradient elution as follows: starting from 10:90 acetonitrile: aqueous to 1:1 acetonitrile: aqueous over 0.5 min then increased to 85:15 acetonitrile: aqueous over 4 min and then after a 0.1 min hold increased to 95:5 acetonitrile: aqueous held for 2.5 min. The aqueous phase contained 0.1 % formic acid throughout. […] Retinoid concentrations were quantified using Analyst software and peak height ratios between the analyte and the internal standard (4-oxo-RA-d3).

[11] = biological target: T2, recombinant CYP26A1; experiment: Metabolite identification, atRA with recombinant CYP26A1; format: in vitro ADME; details: 5 µM atRA, 5 pmol CYP26A1, 2 min
Method: as §3, §4

[12] = biological target: T3, recombinant CYP26B1 (Homo sapiens, UniProt Q9NR63); experiment: Metabolite identification, atRA with recombinant CYP26B1; format: in vitro ADME; details: 5 µM atRA, 5 pmol CYP26B1, 10 min
T3 construct: made in house; host or cells: baculovirus infected insect cells (membrane fractions)
T3 sequence (Q9NR63 1-512): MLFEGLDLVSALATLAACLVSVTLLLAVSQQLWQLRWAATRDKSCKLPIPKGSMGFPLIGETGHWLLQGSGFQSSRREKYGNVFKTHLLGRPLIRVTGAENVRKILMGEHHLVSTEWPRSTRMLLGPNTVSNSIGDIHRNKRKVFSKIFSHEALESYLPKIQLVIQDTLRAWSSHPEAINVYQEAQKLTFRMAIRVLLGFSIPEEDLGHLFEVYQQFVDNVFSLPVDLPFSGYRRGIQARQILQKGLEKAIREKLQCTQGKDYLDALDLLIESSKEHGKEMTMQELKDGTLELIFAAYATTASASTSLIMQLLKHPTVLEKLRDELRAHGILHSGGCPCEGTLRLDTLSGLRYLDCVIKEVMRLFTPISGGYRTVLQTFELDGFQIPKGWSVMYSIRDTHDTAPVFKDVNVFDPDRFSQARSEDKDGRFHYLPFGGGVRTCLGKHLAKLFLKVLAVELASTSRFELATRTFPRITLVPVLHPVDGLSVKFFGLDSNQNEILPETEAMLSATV
From the text: as §2

[13] = set-up: method as in PMID 20513361; details: value used for scaling; cited from earlier work

T1 sequence (P24462 whole entry): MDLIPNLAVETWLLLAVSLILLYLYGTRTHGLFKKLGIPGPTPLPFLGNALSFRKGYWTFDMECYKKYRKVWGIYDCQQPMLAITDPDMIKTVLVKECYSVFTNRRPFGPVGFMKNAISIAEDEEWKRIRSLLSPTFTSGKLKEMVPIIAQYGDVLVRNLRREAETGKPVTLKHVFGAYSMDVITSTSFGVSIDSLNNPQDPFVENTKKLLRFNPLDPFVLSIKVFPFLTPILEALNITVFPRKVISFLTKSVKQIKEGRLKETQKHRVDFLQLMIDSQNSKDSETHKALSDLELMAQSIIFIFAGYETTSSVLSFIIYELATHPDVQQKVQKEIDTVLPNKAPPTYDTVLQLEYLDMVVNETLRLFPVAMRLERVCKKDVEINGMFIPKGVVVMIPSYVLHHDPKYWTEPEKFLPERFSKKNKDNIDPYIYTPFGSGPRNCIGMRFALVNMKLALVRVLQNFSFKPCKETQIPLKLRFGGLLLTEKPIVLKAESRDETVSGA

inhibition at 200 nM [1]: 30 to 40%
inhibition of CYP3A7 mediated 4-OH-RA formation ([2]; talarozole 200 nM, atRA 500 nM): did not significantly inhibit
inhibition of CYP26A1 [3]: reproduced
SMILES: CCC(CC)C(c1ccc(Nc2nc3ccccc3s2)cc1)n1cncn1 (stereo not drawn) [talarozole]

SMILES: CC(=O)N1CCN(c2ccc(OCC3COC(Cn4ccnc4)(c4ccc(Cl)cc4Cl)O3)cc2)CC1 (stereo not drawn) [ketoconazole]
decrease in atRA metabolite formation [4]: > 95%
inhibition of CYP26 [5]: inhibits
inhibition of CYP3A7 [6]: inhibits

inhibition at 200 µM [7]: 30 to 60%
inhibition of CYP3A7 mediated 4-OH-atRA formation ([2]; fluconazole 300 μM, atRA 10 µM): confirmed
SMILES: OC(Cn1cncn1)(Cn1cncn1)c1ccc(F)cc1F [fluconazole]
inhibition of CYP26 [5]: not to inhibit

maternal atRA that could be extracted by fetal liver [8]: ≤ 5%
atRA metabolites formed [11]: hydroxylated atRA at multiple sites
atRA metabolites formed [12]: hydroxylated atRA at multiple sites
SMILES: CC1=C(/C=C/C(C)=C/C=C/C(C)=C/C(=O)O)C(C)(C)CCC1 [atRA, All-trans-retinoic acid]
formation of atRA metabolites [9]: did not observe any formation of atRA metabolites
atRA metabolites observed [10]: only the formation of 4-OH-RA and its metabolite 4-oxo-RA was observed
plasma unbound fraction (fu) [13]: 0.01
